# How the values were obtained:
# [1] = tested on: pS6; test: pS6 in PC3 tumors, MSD (Compound 1); assay type: in vivo, SCID mice; details: for pS6 inhibition in tumor: through 24 hours
# Experimental: The plasma and tumor samples were collected at various time points following compound administration as described.
# Mice were monitored daily for clinical signs and body weight changes. At the end of the study, mice were euthanized and plasma and tumor samples were collected for PK/PD determination. PD markers, pS6 and pAkt, were measured using MSD technology.
# After the last measurement, the experiment was terminated by taking the plasma and tumor samples for PK and PD measurements. Compound concentrations in plasma and tumor were determined by LC-MS/MS. PD markers, pS6 and pAkt, were measured using MSD technology.
# At predetermined time points following dosing, mice were euthanized and plasma and tumor samples were collected for PK/PD determination. Compound concentrations in plasma and tumor were determined by LC-MS/MS. PD markers, pS6 and pAkt, were measured using Mesoscale technology.
# For Mesoscale discovery assays, tissue samples were homogenized in lysis buffer containing protease and phosphatase inhibitors and centrifuged for 10 minutes at 1200 rpm at 4° C. Supernatants were sonicated for 1 minute at 4° C., aliquoted and stored at −80° C. Protein concentrations in samples were determined using BCA Protein Assay Reagent Kit (Thermo Scientific). Meso Scale Discovery kits and protocol for measuring the pS6 and pAkt/Total Akt kits were used. MSD 96-well plates spotted with pS6, pAkt/total Akt were blocked with blocking solution for 5 minutes followed by a wash with wash buffer. […] of tumor lysates were added to each well and incubated for 2 hours followed by a 4× wash with a wash buffer. Detection antibody was added to each well and incubated in the dark for 1 hour at 4° C. The plates were then washed and bound antigen was read using an MSD SECTOR™ instrument.
# [2] = tested on: PC3 tumors; test: Apoptosis TUNEL assay in PC3 tumors (Compound 1, rapamycin); assay type: in vivo, SCID mice; details: 25 mg/kg oral QD for 6 days, 2 hours after last dose
# Experimental: Two hours after the last dose of either vehicle, Compound 1, or rapamycin, the mice were euthanized and the tumors were dissected. The tumors were snap frozen in liquid nitrogen and processed for immunohistochemistry (IHC) and TUNEL.
# To detect the apoptotic cells, fluorescence in situ cell death detection kit (Roche Biosciences) was used. Five to ten micron thick cryostat sections were fixed in 4% paraformaldehyde for 15 minutes at room temperature, washed, permeabilized with 0.3% triton X-100 and 0.1% sodium citrate in PBS for 10 minutes. Sections were then washed in PBS and incubated with a labeling solution containing TdT enzyme for 1 hour at 37° C. in the dark. The sections were washed in PBS, counterstained with Hoechst dye (0.4 μg/mL) at room temperature for 10 minutes and mounted in Prolong Gold antifade reagent.
# The tissues sections processed for apoptosis or immunostained for proliferating cells (Ki-67) or blood vessels were quantitated using Metamorph software. Using 20× objective, 5 different fields from each section, 2 to 4 sections from each tumor, and 3 to 4 tumors from each treatment group or control were used for quantitation. The area of interest was expressed as the percent threshold area of the total area.
# [3] = tested on: Akt(T308); test: Phospho-Akt(T308) in PC3 cell lysates, MSD; assay type: cell-based, human; details: PC3, 1 hour exposure; read-out: p-Akt(T308) IC50
# Text: The direct substrate for TORC1 was 4E-BP 1(T46) and indirect downstream substrate was S6RP(S235/S236). The direct substrate for TORC2 was Akt(S473) and indirect downstream substrates measured were GSK3β(S9) and PRAS40(T246). Additionally, the phosphorylation status of Akt(T308), a phosphorylation site for PDK1 was monitored.
# MSD® biomarker detection assays provide a rapid and convenient method for measuring the total and phosphorylated levels of protein targets within a single small volume sample. These assays are available in both single-plex and multiplex formats. In a single-plex assay, an antibody for a specific protein target is coated on one electrode (or spot) per well. […] MSD Read Buffer that provides the appropriate chemical environment for ECL is added and the plate is read using an MSD SECTOR™ Imager. […] The instrument measures intensity of the emitted light to afford a quantitative measure of the amount of phosphorylated Akt or S6RP present in the sample. […]
# The assay plate was incubated with 150 μL of MSD Blocker A Solution for 1 hour with shaking at room temperature. […] Then 150 μL of 1×MSD Read Buffer T was added to each well. The plate was read on the SECTOR Imager plate reader. The Excel data was transferred to Activity Base and IC50 values were calculated.
# All data was analyzed using XLfit from IDBS. […]
structure (smiles),measurement,setting,value
"CO[C@H]1CC[C@H](N2C(=O)CNc3ncc(-c4ccc(C(C)(C)O)nc4)nc32)CC1 [Compound 1, 7-(6-(2-hydroxypropan-2-yl)pyridin-3-yl)-1-((1r,4r)-4-methoxycyclohexyl)-3,4-dihydropyrazino-[2,3-b]pyrazin-2(1H)-one]",inhibition of pS6,"[1]; 0.3 mg/kg single dose, 0.5 h, data not shown",81%
same,pS6 inhibition,"[1]; 0.3 mg/kg single dose, up to 2 hours, data not shown",Approximately 80%
same,pS6 inhibition,"[1]; 1 mg/kg single dose, up to 4 hours",Approximately 80%
same,PD Marker Inhibition (%) pS6,"[1]; 1 mg/kg single oral dose, 0.5 h",80.8%
same,PD Marker Inhibition (%) pS6,"[1]; 1 mg/kg single oral dose, 2 h",82.8%
same,PD Marker Inhibition (%) pS6,"[1]; 1 mg/kg single oral dose, 4 h",78.6%
same,PD Marker Inhibition (%) pS6,"[1]; 1 mg/kg single oral dose, 6 h",53.1%
same,PD Marker Inhibition (%) pS6,"[1]; 1 mg/kg single oral dose, 10 h",14.4%
same,PD Marker Inhibition (%) pS6,"[1]; 1 mg/kg single oral dose, 24 h",20.6%
same,inhibition of pS6 in tumors,"[1]; 10 mg/kg QD 5 days, 24 hours after the last dose",22%
same,inhibition of pS6,"[1]; 10 mg/kg single dose, up to 8 hours",> 80%
same,PD Marker Inhibition (%) pS6,"[1]; 10 mg/kg single oral dose, 1 h",79.5%
same,PD Marker Inhibition (%) pS6,"[1]; 10 mg/kg single oral dose, 3 h",91.9%
same,PD Marker Inhibition (%) pS6,"[1]; 10 mg/kg single oral dose, 8 h",91.2%
same,PD Marker Inhibition (%) pS6,"[1]; 10 mg/kg single oral dose, 16 h",32.4%
same,PD Marker Inhibition (%) pS6,"[1]; 10 mg/kg single oral dose, 24 h",32.7%
same,PD Marker Inhibition (%) pS6,"[1]; 10 mg/kg single oral dose, 48 h",39.5%
same,PD Marker Inhibition (%) pS6,"[1]; 10 mg/kg single oral dose, 72 h",47.9%
same,inhibition of pS6 levels,"[1]; 25 mg/kg single dose, up to 24 hours",> 80%
same,PD Marker Inhibition (%) pS6,"[1]; 25 mg/kg single oral dose, 1 h",87.9%
same,PD Marker Inhibition (%) pS6,"[1]; 25 mg/kg single oral dose, 3 h",95.1%
same,PD Marker Inhibition (%) pS6,"[1]; 25 mg/kg single oral dose, 8 h",92.3%
same,PD Marker Inhibition (%) pS6,"[1]; 25 mg/kg single oral dose, 16 h",92.1%
same,PD Marker Inhibition (%) pS6,"[1]; 25 mg/kg single oral dose, 24 h",83.7%
same,PD Marker Inhibition (%) pS6,"[1]; 25 mg/kg single oral dose, 48 h",47.2%
same,PD Marker Inhibition (%) pS6,"[1]; 25 mg/kg single oral dose, 72 h",68.3%
same,pS6 inhibition in tumor,[1]; 30 mg/kg single oral dose,78%
same,pS6 inhibition in tumor,[1]; 100 mg/kg single oral dose,91%
same,"both PD markers (pS6, pAKT) in tumors","[1]; 25 and 50 mg/kg QD, 24 hr timepoint, data not shown",significantly inhibited
same,TUNEL-positive cells compared with the vehicle control,[2],about a two fold increase
same,IC50,[3],0.13 µM

# From US20140113904A1, “TREATMENT OF CANCER WITH TOR KINASE INHIBITORS” (SIGNAL PHARMACEUTICALS, LLC, priority 2012, published 2014)
